Assay results as given in patent US9988462B2, “Material and methods for treating or preventing HER-3 associated diseases” (Daiichi Sankyo Europe GmbH, priority 2005, dated 2018).

Tests used:
[1] = system: HER3 phosphorylation in A549 cells; assay: Reactivation study: pHER3 ELISA in A549 cells; type: cell-based, human
Experimental: Experiments were performed in triplicate wells and repeated at least 2 times. Results are expressed as mean±SD.
A549 cells were plated in Ham's F-12 medium (Gibco), all media supplemented with 10% FBS (Hyclone, Logan, Utah) and 1× L-glutamine (Gibco). Cells were serum-starved overnight. […] Cells were washed with cold PBS after their respective treatment time points and lysed using RIPA buffer (20 mM Tris-HCl pH 7.5, 1% Igepal, 1% sodium deoxycholate, 150 mM NaCl, 0.1% SDS, 1% Triton X-100) containing 200 μM phenylmethanesulfonylfluoride (PMSF) (Fluka Biochemica), 200 μM Halt protease inhibitor cocktail kit (Pierce Biotechnology), and 200 μM sodium orthovanadate (Sigma-Aldrich, St. Louis, Mo.). The lysates were passed through QIA shredder columns (Qiagen) and the flow-through quantitated using a spectrophotometer (Beckman Coulter, Fullerton, Calif.). Proteins, 50 μg per well, were analyzed in duplicate for pHER3 using ELISA Duoset (R&D systems) according to manufacturer's protocol.

rat HER-3 = molecular target: T1, rat HER-3 (Rattus norvegicus, UniProt Q62799); assay: ELISA cross-reactivity with rat HER-3; type: binding
T1 construct: The cDNAs expressing the ECD of human and rat HER-3 were cloned into mammalian expression vectors as V5-His fusion proteins; V5-His; made in house; host or cells: mammalian expression vector; HEK 293T is named only for the chimeras
T1 sequence (Q62799 20-643 limits assumed): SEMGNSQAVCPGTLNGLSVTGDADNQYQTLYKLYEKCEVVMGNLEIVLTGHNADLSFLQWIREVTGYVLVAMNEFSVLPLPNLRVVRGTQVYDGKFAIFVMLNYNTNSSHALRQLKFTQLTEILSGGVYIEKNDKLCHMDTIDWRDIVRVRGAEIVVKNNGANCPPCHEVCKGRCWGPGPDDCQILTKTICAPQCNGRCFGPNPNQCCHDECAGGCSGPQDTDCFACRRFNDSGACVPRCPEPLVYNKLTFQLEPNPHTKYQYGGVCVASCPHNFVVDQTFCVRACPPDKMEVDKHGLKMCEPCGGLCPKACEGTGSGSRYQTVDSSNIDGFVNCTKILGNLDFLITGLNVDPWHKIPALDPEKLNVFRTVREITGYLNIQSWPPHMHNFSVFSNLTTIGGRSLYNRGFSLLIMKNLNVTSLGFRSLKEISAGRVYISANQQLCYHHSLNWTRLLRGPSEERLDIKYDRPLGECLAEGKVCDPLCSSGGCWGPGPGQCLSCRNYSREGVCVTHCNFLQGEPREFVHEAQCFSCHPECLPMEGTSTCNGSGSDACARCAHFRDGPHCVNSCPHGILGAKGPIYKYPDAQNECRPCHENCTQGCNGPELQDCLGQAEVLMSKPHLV
Description: The extra-cellular domain (ECD) of Human HER-3 cDNA was amplified from RAT1-HER-3 cells. The rat HER-3 cDNAs was amplified by RT-PCR from rat liver RNA and confirmed by sequencing. The cDNAs expressing the ECD of human and rat HER-3 were cloned into mammalian expression vectors as V5-His fusion proteins. Domains from the human HER-3 ECD were swapped into the scaffold provided by the rat HER-3 ECD by using the Mfe1, BstX1 and DraIII internal restriction sites. By this means, various chimeric rat/human HER-3 ECD HIS fusion proteins (amino acids 1-160, 161-358, 359-575, 1-358, 359-604) were constructed and expressed via transient transfection of HEK 293T cells. Expression of the constructs was confirmed using a rat polyclonal antibody against human HER-3. The human monoclonal antibodies were tested in ELISA for binding to the secreted chimeric ECDs.

[2] = molecular target: T2, reduced, denatured HER-3-His tagged purified ECD protein (Homo sapiens, UniProt P21860); assay: Dot blot analysis of reduced, denatured HER-3 ECD; type: binding
T2 construct: The extracellular domain of HER-3 (ECD) cDNA was cloned by polymerase chain reaction (PCR); His (C); made in house; host or cells: HEK293

[3] = molecular target: T3, L1-S1 extra-cellular domains of HER-3 (Homo sapiens, UniProt P21860); assay: ELISA binding to truncated L1-S1 HER-3 protein
T3 construct: L1 domain (aa 19-184), in the S1 (aa 185-327); V5-His (C); made in house; host or cells: HEK 293T (supernatant)

BxPC3 [4] = assay: BxPC3 pancreatic tumor xenograft in SCID mice (established tumors); type: in vivo, mouse; conditions: BxPC3, CB17 SCID mice; for tumor growth: 50 mg/kg then 25 mg/kg once weekly i.p.
Experimental: As controls sets of mice treated with either the vehicle control, PBS, or the established therapeutic antibody, Erbitux, were included. 5×10^6 BxPC3 cells were inoculated subcutaneously without Matrigel into CB17 SCiD mice. […] Thereafter the mice received once weekly 25 mg/kg injections for the duration of the study.

BxPC3 [5] = assay: BxPC3 xenograft in SCID mice, combination with Erbitux; type: in vivo, mouse; conditions: BxPC3 with Matrigel, CB17 SCID mice, weekly i.p. for six weeks
Experimental: 5×10^6 BxPC3 cells were inoculated subcutaneously with Matrigel into CB17 SCID mice. After tumor volumes had reached 200 mm^3, mice were randomized into individual treatment groups. […] All antibodies were dosed at a single loading dose of 50 mg/kg/week, followed by weekly injections of 25 mg/kg for six weeks. Control arms received bi-weekly administrations of Gemcitabine (120 mg/kg), weekly pooled human IgG or weekly vehicle (PBS) injections. The regimens are detailed in TABLE 9 below.

[6] = system: HER-3 phosphorylation (pHER-3); assay: Pharmacodynamic pHER-3 immunoblot of BxPC3 tumor xenografts; type: in vivo, mouse; conditions: 500 μg on day 1 and day 4, sacrificed day 5
Experimental: The inhibition of HER-3 in the human pancreatic tumors could also be shown in a pharmacodynamic experiment. The BxPC3 tumor xenografts were grown as described above. […] The mice were treated on day 1 and day 4 and then sacrificed on day 5 to measure the antibody-dependent inhibition of HER-3 phosphorylation (pHER-3).
The tumors were homogenized in a standard RIPA buffer with protease inhibitors. 50 μg clear lysate was separated on a 4-20% Tris-glycine gel, transferred onto a nitrocellulose membrane and blocked in 3% bovine serum albumin (BSA). Immunoblotting was performed using an anti-pHER-3 antibody (antibody 21D3, Cell Signaling technology). An anti-actin antibody (AB a-2066, Sigma) was used as a control.
Expression was detected by enhanced chemiluminescence (Amersham Biosciences, Piscataway, N.J.). The images were captured with the Versadoc 5000 Imaging System (BioRad, Hercules, Calif.). […] See, FIG. 20 of US Publication No. 20080124345.

Calu-3 NSCLC xenografts = assay: Calu-3 NSCLC xenograft, U1-59 with panitumumab or erlotinib; type: in vivo, mouse; conditions: Calu-3, twice a week; 100 μg U1-59, 100 μg panitumumab, 25 μg erlotinib
Experimental: (§1) To determine in vivo efficacy, mice bearing ˜200 mm^3 Calu-3 NSCLC xenografts were treated twice a week with anti-HER family inhibitors or control. Other experiments were done with A549 cells.

[7] = system: SkBr-3 breast cancer cells; assay: Anchorage-independent growth of SkBr-3 cells; type: cell-based, human
Experimental: (§2) IgG was used as a negative control for all studies. Tumor cell colonies formed in the absence or presence of HRG for 6 to 10 days and were stained with MTT for 4 to 6 hours and quantified.

MDA-MB-435 cells = assay: Anchorage-independent growth of MDA-MB-435 cells; type: cell-based, human; conditions: basal MDA-MB-435
Experimental: as §2

[8] = system: MDA-MB-175VII breast cancer cells; assay: Proliferation of MDA-MB-175VII cells (ALOMAR BLUE); type: cell-based, human; conditions: four days
Experimental: After four days, the growth of treated cells was measured with ALOMAR BLUE™.

A549 cells = assay: Anchorage-independent growth of A549 cells; type: cell-based, human; conditions: A549, 10 μg/mL, 10 days
Description: (§3) Tumor cell colonies formed in the absence of exogenous ligand for 10 days and were stained with MTT and quantified using a Scanalyzer HTS camera imaging system.

A549 NSCLC xenograft = A549 NSCLC xenograft model; type: in vivo, mouse; conditions: vs IgG control or other HER mAbs
Experimental: as §1, §3

HCC-1569 = HCC-1569 breast cancer xenograft, U1-59 and lapatinib; type: in vivo, mouse; conditions: HCC-1569 xenograft
[9] = system: BxPC3 pancreatic xenografts; assay: BxPC3 xenograft dose/schedule efficacy (PK/PD/Efficacy model); type: in vivo, mouse; conditions: vs IgG control
Experimental: (§4) Inhibition of pHER in the BxPC3 xenograft tumors was analyzed by western blotting. A PK/PD/Efficacy model (based on Simeoni et al. (2004) Cancer Res. 64:1094-1101) was used to prospectively select dose and schedule for further testing. To confirm the PK/PD/Efficacy model, BxPC3 pancreatic tumor-bearing mice were treated with 400 μg/mouse biweekly and 200 μg/mouse biweekly, weekly and twice a week. […] The relationship between drug concentration, inhibition of pHER-3 in animals, and interspecies PK scaling was used to select the minimally effective dose for the first in human study.

pHER-3 = pHER-3 in BxPC3 xenograft tumors (quantitative Western blot); type: in vivo, mouse; conditions: for inhibition of pHER-3: quantitative Western blot
Experimental: as §4

[10] = Serum concentration of U1-59 at necropsy; type: in vivo, mouse
Experimental: as §4

[11] = Interspecies scaling of U1-59 PK to human; conditions: estimated by interspecies scaling (mice, rat, monkeys)
Experimental: as §4

[12] = system: HER-3 phosphorylation in MCF-7 cells; assay: HRG-β induced HER-3 phosphorylation in MCF-7 cells (ELISA); type: cell-based, human; conditions: 10 nM HRG-β for 10 min, read-out: IC50, inhibition of phosphorylation of HER-3
Experimental: Lysates were transferred to 1B4 (mouse anti-HER-3 mAb) ELISA plates and phosphorylation of HER-3 was analyzed with antibody 4G10. […] See, FIG. 7b of US Publication No. 20080124345.

[13] = A549, 24 hours, 50 μg/ml U1-59, 5 μM gefitinib

## COc1cc2ncnc(Nc3ccc(F)c(Cl)c3)c2cc1OCCCN1CCOCC1 [gefitinib, 4-(3-chloro-4-fluorophenylamino)-7-methoxy-6-[3-(4-morpholinyl)propoxy]quinazoline]
[1]; A549, 1 hour, 5 μM gefitinib
  HER3 phosphorylation: partial inhibition of HER phosphorylation
[1]; [13]
  HER3 phosphorylation: reversed to control levels after 24 hours

## U1-59: human anti-HER-3 antibody, SEQ ID NO: 70/72
Rat HER-3
  Rat XR (cross-reactive): cross-reacted with rat HER-3 and Yes
[2]
  binding in dot blot analysis: absence of binding
[3]
  binding to the L1-S1 protein: bound to the L1-S1 protein
BxPC3 [4]
  delay of tumor growth compared with Erbitux: more effective than the EGF-R-targeting antibody Erbitux at delaying tumor growth
  tumor growth: reduced the growth of the human pancreatic tumors in a cytostatic fashion
BxPC3 [5]
  tumor growth: delayed the growth of the human pancreatic tumors to the same degree as Gemcitabine
[6]
  phosphorylation of HER-3 in tumors: no longer detectable
Calu-3 NSCLC xenografts
  tumor growth: greatly reduced tumor growth as compared to control
[7]
  inhibition of colony growth: 50%
MDA-MB-435 cells
  colony growth / colony formation: did not inhibit colony growth
[8]
  reduction of HRG-stimulated proliferation: up to 40%
A549 cells
  inhibition of colony growth: 50%
A549 NSCLC xenograft
  tumor growth: tumor stasis
HCC-1569
  tumor growth: did not inhibit HCC-1569 tumor growth
[9]; 200 μg/mouse biweekly
  inhibition of tumor growth: 33%
[9]; 200 μg/mouse twice a week
  inhibition of tumor growth: 70%
[9]; 200 μg/mouse weekly
  inhibition of tumor growth: 74%
[9]; 400 μg/mouse biweekly
  inhibition of tumor growth: 50%
pHER-3; 200 μg/mouse biweekly
  inhibition of pHER-3: 58%
pHER-3; 200 μg/mouse twice a week
  inhibition of pHER-3: 20%
pHER-3; 200 μg/mouse weekly
  inhibition of pHER-3: 23%
pHER-3; 400 μg/mouse biweekly
  inhibition of pHER-3: 30%
pHER-3; BxPC3 xenograft mice, estimated
  trough concentration needed to achieve 90% maximal pHER-3 inhibition (IC90): ~3 μg/ml
[10]; 200 μg/mouse biweekly
  Serum concentration at necropsy, mean (SD): 0.45 (0.21) μg/mL
[10]; 200 μg/mouse twice a week
  Serum concentration at necropsy, mean (SD): 34.9 (9.1) μg/mL
[10]; 200 μg/mouse weekly
  Serum concentration at necropsy, mean (SD): 3.08 (0.82) μg/mL
[10]; 400 μg/mouse biweekly
  Serum concentration at necropsy, mean (SD): 2.07 (0.97) μg/mL
[11]
  clearance (CL) in man: 11 mL/day/kg
  initial volume of distribution (Vd) in man: 0.028 L/kg
[1]; [13]
  HER3 phosphorylation: greater inhibition of HER phosphorylation that was sustained after 24 hours

## panitumumab: fully human monoclonal antibody specific to EGF-R [reference compound]
Calu-3 NSCLC xenografts
  tumor growth: greatly reduced tumor growth as compared to control

## CS(=O)(=O)CCNCc1ccc(-c2ccc3ncnc(Nc4ccc(OCc5cccc(F)c5)c(Cl)c4)c3c2)o1 [lapatinib, N-[3-chloro-4-[(3-fluorobenzyl)oxy]phenyl]-6-[5-[[[2-(methylsulfonyl)ethyl]amino]methyl]furan-2-yl]quinazolin-4-amine bis(4-methylbenzene-sulfonate)monohydrate, reference compound]
HCC-1569
  tumor growth: some, but not significant tumor growth inhibition

B1: U1-53: anti-HER-3 antibody, SEQ ID NO: 54/56 (antibody, V domains shown)
VH: EVQLVESGGGLVQPGGSLRLSCAASGFTFSIYSMNWVRQAPGKGLEWVSYISSSSSTIYYADSVKGRFTISRDNAKNSLYLQMNSLRDEDTAVYYCARDRGDFDAFDIWGQGTMVTVSS
VL: DIQMTQSPSSLSASVGDRVTITCQASQDITNYLNWYQQKPGKAPKLLIYDASNLETGVPSRFSGSGSGTDFTFTISSLQPEDIATYNCQQCENFPITFGQGTRLEIK
Rat HER-3
  Rat XR (cross-reactive): No
[2]
  binding in dot blot analysis: absence of binding
[12]
  IC50: 0.14 nM
BxPC3 [4]
  delay of tumor growth compared with Erbitux: more effective than the EGF-R-targeting antibody Erbitux at delaying tumor growth
  tumor growth: reduced the growth of the human pancreatic tumors in a cytostatic fashion
BxPC3 [5]
  tumor growth: delayed the growth of the human pancreatic tumors to the same degree as Gemcitabine
